According to PMC8786932, “Bicyclic azetidines target acute and chronic stages of Toxoplasma gondii by inhibiting parasite phenylalanyl t-RNA synthetase” (Nature Communications, 2022):
pEC50: −log10 of the molar value. Like-named read-outs stand apart in the source and are kept apart here.

What was measured:
[1] = test system: firefly luciferase expressing T. gondii strains (GT1, RH, ME49, CTG, MAS, RUB, FOU, VAND); assay: Luciferase-based growth assay, FLuc parasites of diverse genotypes; type: cell-based; details: Toxoplasma gondii
Procedure: In vitro cultures of HFF cells containing mature vacuoles were scraped, passaged through 23 g blunt end needles, and filtered using 3 micron filters. Purified parasites were resuspended in 350 μL of cytomix plus[49] and combined in a BTX 4 mm gap cuvette with 30 μL of PCR amplified templates corresponding to mutations of interest and 10 μg of pSAG1:Cas9-GFP U6:sgTgPheRS^[mut] (in 20 μL, 400 μL total volume, see Supplementary Data 1 for sgRNA sequences) prior to electroporation using a BTX ETM 830 electroporator. Amplified templates for TgPheRS mutations were generated from gBlocks (Integrated DNA Technologies, Coralville, IA, USA) that contain a BclI restriction site that replaces the PAM sequence to protect the repair template from being cut by Cas9. At 16 h post-transfection, transgenic parasites expressing pSAG1:Cas9-GFP were sorted on a Sony SH800 FACS sorter directly into 96-well plates. Single clones containing TgPheRS^[mut] were identified by amplifying a ~500 bp PCR fragment around introduced mutation followed by digestion using BclI (New England Biolabs) BclI sensitive clones were expanded and the locus was Sanger sequenced to verify incorporation of each independent mutation. To generate firefly luciferase (FLuc) expressing strains, freshly harvested parasites were combined with 20 μg of pTUB-FLUC DHFR flox plasmid and 10 μg of pSAG1:Cas9-GFP U6:sgUPRT[50] (in 50 μL cytomix plus) and transformed by electroporation as described above. Parasites were allowed to recover overnight followed by sequential selection with pyrimethamine (1.0 μM) and 5-flurodeoxyuracil (FUDR, 10 μM), as described previously. Stable clones were isolated by limiting dilution and a clone from each genetic background selected based on high luciferase activity (Table 1).
All assays were carried out in a 96-well plate format containing confluent HFF monolayers to support parasite growth. To avoid edge effects, only the inner 60 wells of each plate were used. All compounds described were provided by the Broad Institute as 10 mM stocks in 100% DMSO and stored at −80 °C prior to use. Pyrimethamine (Sigma-Aldrich) was prepared as 5 mM stock in 100% DMSO and stored at −20 °C prior to use.

[2] = test system: T. gondii RHΔΔ TgPheRS[V262A]; assay: Tachyzoite lytic assay, V262A mutant; type: cell-based; details: Toxoplasma gondii
Procedure: In vitro cultures of HFF cells containing mature vacuoles were scraped, passaged through 23 g blunt end needles, and filtered using 3 micron filters. Purified parasites were resuspended in 350 μL of cytomix plus[49] and combined in a BTX 4 mm gap cuvette with 30 μL of PCR amplified templates corresponding to mutations of interest and 10 μg of pSAG1:Cas9-GFP U6:sgTgPheRS^[mut] (in 20 μL, 400 μL total volume, see Supplementary Data 1 for sgRNA sequences) prior to electroporation using a BTX ETM 830 electroporator. Amplified templates for TgPheRS mutations were generated from gBlocks (Integrated DNA Technologies, Coralville, IA, USA) that contain a BclI restriction site that replaces the PAM sequence to protect the repair template from being cut by Cas9. […]
Parasite growth on HFF monolayers was monitored using a 96-well plate-based lytic assay modified from a previously described protocol. […] Plates were rinsed with water, air dried, and absorption quantified on the Cytation 3 multi-mode imager at 570 nm wavelength. % parasite growth was calculated as 100−[(OD value for infected cultures at each concentration of compound/average OD value for no compound and no parasite infection) × 100]. EC50 values were calculated based on the mean of three biological replicates with each replicate containing two technical replicates.

[3] = test system: T. gondii residual infection; assay: ELISA of survivors and bioassay of brain homogenate into naive recipient mice; type: in vivo, Ifngr1-/- mice
Procedure: Testing of compounds to prevent reactivation of chronic infection was […] to test the efficacy of PheRS inhibitors against chronic infection. In both cases, male and female C57BL/6 Ifngr1^−/− mice were infected by oral gavage with 5 cysts of the ME49-Fluc strain isolated from chronically infected CBA/J mice. Compound BRD7929 was formulated at 1 mg/mL in freshly prepared compound resuspension buffer (vehicle; 10% ETOH, 4% Tween-80 in 1xPBS), aliquoted for single use and stored at −20 °C. In the first protocol, at 48 h post-infection, animals were given sulfadiazine (0.25 g/L in drinking water) for 20 days post-infection to prevent death during acute infection and to allow establishment of chronic infection. Two days after completion of the sulfadiazine treatment, one cohort of mice were treated once a day with 10 mg/kg BRD7929 by oral gavage for 16 days and control mice received an equal volume of vehicle during the same time frame. Animals were monitored for survival and weight loss for 30 days post-treatment. […] All mice were monitored for survival and weight loss every two days for the duration of treatment and for an additional >20 days post-treatment. […] Recipient mice were monitored for 20 days for survival, weight loss, and seroconversion by ELISA.

[4] = 30 mg/kg oral vs 10 mg/kg

## COc1ccc(NC(=O)N2CCCCN3[C@H](CN(C)C)[C@H](c4ccc(C#Cc5ccccc5)cc4)[C@@H]3C2)cc1 [BRD7929]
[1]; GT1, all eight lineages, read-out: EC50 against tachyzoite growth, all lineages
  pEC50: > 7.30
[1]; GT1, strain CTG, type III, N. America, read-out: EC50
  pEC50: 7.50
[1]; GT1, strain FOU, type VI, Europe, read-out: EC50
  pEC50: 7.35
[1]; GT1, strain GT1, type I, N. America, read-out: EC50
  pEC50: 7.79
[1]; GT1, strain MAS, type IV, Europe, read-out: EC50
  pEC50: 7.38
[1]; GT1, strain ME49, type II, Europe, read-out: EC50
  pEC50: 7.31
[1]; GT1, strain RH, type I, Europe, read-out: EC50
  pEC50: 7.62
[1]; GT1, strain RUB, type V, S. America, read-out: EC50
  pEC50: 7.57
[1]; GT1, strain VAND, type X, S. America, read-out: EC50
  pEC50: 7.55
[2]; 72 h, read-out: EC50, V262A
  pEC50: 6.69
[2]; read-out: EC50 (growth restriction)
  pEC50: 6.80
[3]; oral challenge model survivors, recipients monitored 20 days
  bioassay of brains of surviving treated mice in naive recipients: All recipient mice survived and remained seronegative
[3]; reactivation model survivor
  bioassay of brain homogenate of the surviving animal: failed to detect any residual infection
[4]
  plasma levels at increased dose: did not lead to a proportional increase in plasma levels
